Holding throughout (type): in vivo, male Sprague-Dawley rats
Data set [1] can be described thus: Body weight of MCT-modeled rats. The following applies: intragastric; for Body weight on Day 0: Day 0 = MCT injection, before dosing; for Body weight on Day 14: Day 14 = start of dosing; for Body weight at sampling: sampled on Day 27. Here is the method:
(§1) Twenty-eight 7-week-old male Sprague-Dawley rats (average weight of 200-250 g) were purchased from Vital River and were raised at the experimental site for 1 week of acclimatization (temperature 20 °C-26 °C, humidity 30%-70%, light-dark cycle ratio 1:1) until they were 8 weeks old.
(§2) Twenty-eight rats were randomized into the following 6 groups, including dosing groups, positive control groups, a negative control group and a healthy control group, and each was marked with ear tags.
(§3) • (1) Preparation of monocrotaline (MCT) solution: An adequate amount of MCT was weighed into a 50 mL solution of 20% ethanol-normal saline. After gentle shaking, the solution was transferred to a 50-mL centrifuge tube, and placed tilted in a thermostatic shaker at 37 °C, 220 rpm for 12-14 hours to fully dissolve until no visible crystalline particles observed. • (2) Injection of MCT solution: The skin on the dorsal cervical region of the rats was gently lifted, MCT solution was subcutaneously injected at a dose of 60 mg/kg using a 1-mL syringe and the day was recorded as Day 0. • (3) Healthy control: The same volume of normal saline was injected in the same manner.
According to the concentration of 0.6 mg/mL and 1.2 mg/mL (3-mg/kg/day and 6-mg/kg/day dose groups), appropriate amounts of the test compound were weighed and dissolved in corresponding volume of pure water by shaking to obtain transparent solution, respectively; • (2) The resulting solutions were stored in a 4 °C refrigerator. Remove and equilibrate to room temperature before use;
Starting from Day 14, the rats were weighed daily, and the corresponding solutions (test compound or normal saline) were administered intragastrically according to the grouping protocol until Day 27, for a total of 14 days; the intragastric dose was 0.5 mL/100 g, and the body weight and survival data of the rats were recorded.
(§4) Note: Due to the limited total amount of Compound 1, rats in Group 1 were actually administered for 13 days, rats in Group 2 were actually administered for 12 days, and all were measured and sampled on Day 27; rats in Groups 3-6 were actually administered for 14 days, and all were measured and sampled on Day 27.

Data set [2] has as its system MCT modeling rats. In words: Hemodynamic measurement of right ventricular systolic pressure (RVSP) by right cardiac catheterization in MCT-modeled rats. How it is done: as §1, §2
as §3, with “manner. […]” for “manner.”
(§5) Starting from Day 14, the rats were weighed daily, and the corresponding solutions (test compound or normal saline) were administered intragastrically according to the grouping protocol until Day 27, for a total of 14 days; the intragastric dose was 0.5 mL/100 g, and the body weight and survival data of the rats were recorded. […]
as §4
(§6) Rats in Groups 3-6 were actually administered for 14 days, and all were measured and sampled on Day 27. […]

In data set [3] the test system is MCT modeling rats. The experiment in a line: Fulton index (RV/(LV+S)) measurement in MCT-modeled rats. Here is the method: The Fulton index reflects the organ remodeling caused by PAH. […] This is a goal that current pharmaceutical drugs for treating PAH cannot achieve, but one that new drugs for PAH aim to reach.
as §1, §2
as §3, with “manner. […]” for “manner.”
as §5
After separating the heart, the non-ventricular parts (such as the atria, blood vessels, and valve rings) were cut off. […] RV/(LV+S) was calculated as the Fulton index. […]
as §6

Consider one compound from patent publication US20260355136A1, “PROSTACYCLIN FOR TREATING PULMONARY HYPERTENSION” (Shanghai Forefront Pharma Co., Ltd., priority 2023, published 2026).

Regarding `CCCCC[C@H](O)CC[C@@H]1[C@H]2Cc3cccc(OCC(=O)O)c3C[C@H]2C[C@H]1O` [Compound C1, Treprostinil sodium 5.5-hydrate], in data set [1] (3 mg/kg/day group), the “Body weight on Day 0” value is recorded as 330 + 25.11 g and the “Body weight on Day 14” value was 430 + 34.15 g. Also, the “Body weight at sampling” value in data set [1] (3 mg/kg/day) is 431 + 58.03 g. Further, in data set [1] (6 mg/kg/day group), the “Body weight on Day 0” value was 316 + 4.35 g and the “Body weight on Day 14” value is reported as 413 + 15.81 g. The “Body weight at sampling” value in data set [1] (6 mg/kg/day) is listed as 436 + 9.65 g. Moreover, in data set [2] (3 and 6 mg/kg), the “RVSP compared with healthy control group” value is given as “still higher than that in the healthy control group” and the “RVSP reduction in rats” value is “can significantly reduce RVSP in rats”. For the same compound, the “RVSP, difference between dosing groups” value in data set [2] (6 vs 3 mg/kg) is listed as “no significant difference in the effects between the two dosing groups”. In addition, in data set [3] (3 and 6 mg/kg), the “Fulton index compared with healthy control group” value is recorded as “still higher than that of the healthy control group” and the “Fulton index reduction of rat heart” value is reported as “can significantly reduce the Fulton index of rat heart”. The “Fulton index, difference between dosing groups” value in data set [3] (6 vs 3 mg/kg) is “no significant difference in the effects between the two dosing groups”.
